Source: US8044057B2, “Methods for suppressing an immune response or treating a proliferative disorder” (The United States of America as represented by the …, priority 2003, dated 2011)

Assays:
A549 cells = experiment: BrDU incorporation (in situ ELISA) in A549 cells; type: cell-based, human; settings: 24 hours, 0-200 μM LY303511 without or with rapamycin 200 ng/ml
PASM cells = experiment: Propidium iodide flow cytometry cell cycle analysis in PASM cells; type: cell-based, human; settings: 24 hours
Protocol: FIGS. 5A-5B are bar graphs showing that LY303511 inhibits the cell cycle by causing combined G1 and G2/M arrest and that LY303511 inhibits CK2 activity. For the data shown in FIG. 5A, PASM cells were cultured in medium with FBS for 48 hours before the addition of 0-100 μM LY303511 without or with raparnycin, 400 ng/ml, for 24 hours. Cells were then harvested and incubated with propidium iodide for 2 hours before counting using a Becton-Dickson FACSCalibur. Data are the means (±SEM) of percentages of cells in G1, S, or G2/M phase of the cell cycle in three experiments with duplicate assays. *p<0.05 vs. DMSO control, or †p<0.05 vs. 10 μM LY303511, by Student's t—test. FIG. 5B is a bar graph showing that LY303511 or LY294002 inhibits CK2 in vitro. […] Data are the means of values for samples with inhibitors expressed as percentage of that for control, which was (mean±SEM) 0.2±0.03 pmol phosphate/100 ng protein/10 min. […]
In order to investigate the effect of LY303511 on the cell cycle, A549 cells or pulmonary artery smooth muscle cells were grown to sub-confluence in serum-containing media, and incubated with vehicle, 10, or 100 mcM LY303511, without or with Rapamycin (200 ng/ml), for 24 hours. […] The proportion of cells in G1, S, or G2/M phase of the cell cycle for each experimental condition was determined. […]

[1] = system: primary mouse peritoneal macrophages; experiment: LPS-induced cytokine production in peritoneal macrophages; type: cell-based; settings: LPS 1 μg/ml; 1~100 μM; 24 hours
Protocol: FIG. 7A-F are bar graphs showing that LY303511 inhibits lipopolysaccharide (LPS)—induced cytokine production or STAT1 activity in primary mouse peritoneal macrophages or A549 cells. Wild-type mice from Jackson (Jac) and Taconic (Tac) were used. Peritoneal macrophages were harvested three days after thioglycolate injection. Cells were incubated for three days in 2% FCS RPMI. The supernatant was collected after stimulation with LPS 1 μg/ml with or without LY 303511 (1˜100 μM) or DMSO for 24 hours. Cytokines (interleukin (IL)-12p70, tumor necrosis factor (TNF)-α, interferon (IFN)-γ, MCP-1, IL-10, IL-6) were measured in cell supematants. […] Thus, LY303511 clearly can reduce cytokine expression, and has an anti-inflammatory effect.
Peritoneal macrophages were harvested three days after thioglycolate injection. Cells were incubated for three days in 2% FCS RPM. The supernatant was collected after stimulation with LPS 1 μg/ml with or without LY 303511 (1˜100 μM) or DMSO for 24 hours. Cytokines (interleukin (IL)-12p70, tumor necrosis factor (TNF)-α, interferon (IFN)-γ, monocyte chemoattractant protein (MCP)-1, IL-10, IL-6) were measured in cell supernatants. […] Thus, LY303511 clearly can reduce cytokine expression, and has an anti-inflammatory effect.

NOD mouse model = experiment: NOD and Hashimoto's autoimmune animal models; type: in vivo; settings: compared to untreated animals
From the text: There are several animal based autoimmune models that can be used to test the use of the compounds disclosed herein for the treatment of an autoimmune disorder. Table 2 lists several exemplary immune-mediated disorders that can be treated using a peptide/MHC complex. For example, the non-obese diabetic (NOD) mouse model is an animal model system wherein animals develop diabetes with increasing age. To test the efficacy of a particular compound, groups of animals at the prediabetic stage (4 weeks or younger) are treated with, for example, LY303511, or LY303511 in combination with an additional immunosuppressive agent. The number of animals developing diabetes, and the rate that the anirnals develop diabetes, is then analyzed. Similarly, in the Hashimoto's mouse model system, to test the efficacy of a vaccine, groups of animals prior to the development of symptoms are treated with a treated with, for example, LY303511, or LY303511 in combination with an additional immunosuppressive agent. The number of animals developing the disease, and the rate that the animals develop the disease, are then analyzed.

O=c1cc(N2CCNCC2)oc2c(-c3ccccc3)cccc12 [LY303511, 2-(4-piperazinyl)-8-phenyl-4H-1-benzopyran-4-one]
BrDu uptake (DNA synthesis, proliferation) (A549 cells): concentration-dependent reduction | G1 phase cells (G1 arrest) (PASM cells): negligible | proportion of cells in S phase (PASM cells): reduced the proportion of cells in S phase | LPS-induced cytokines (IL-12p70, TNF-α, IFN-γ, MCP-1, IL-10, IL-6) in cell supernatants [1]: dose-dependent reduction of all six cytokines | progression or development of autoimmune disease (NOD mouse model): delays the progression of the disease, or provides protection from developing the disease
